Measured values: PMC8286840, “Identifying SARS-CoV-2 antiviral compounds by screening for small molecule inhibitors of Nsp3 papain-like protease” (Biochemical Journal, 2021)
Where a name gives a salt, the structure may show the parent alone. Read-outs that look alike come from different tables or passages of the source.

Legend:
[1] = target: T1, SARS-CoV-2 PLpro (nsp3 1564–1878) (Severe acute respiratory syndrome coronavirus 2, UniProt P0DTD1); test: biochemical; design: FRET-quenched peptide (Pro3) cleavage by PLpro, 10 min pre-incubation, slope over 20 min, normalised to no-compound control; conditions: read-out: % of control remaining
[2] = target: T1, SARS-CoV-2 PLpro (nsp3 1564–1878); test: biochemical; design: FRET-quenched peptide (Pro3) cleavage by PLpro, 10 min pre-incubation, slope over 20 min, normalised to no-compound control; conditions: read-out: % of control remaining; remark: listed apart in the source

Nc1nonc1C(=Nc1ccc(F)c(Br)c1)NO [IDO-IN-1]
remaining activity at 1.25 µM ([1]; Well no.=8359, low concentration screen): 99.2%
remaining activity at 3.75 µM ([2]; Well no.=8359, high concentration screen): 99.9%

Cc1ccc(NC(=O)Nc2cc(-c3ccccc3-c3nn[nH]n3)ccc2N(CC(C)C)CC(C)C)cc1 [IDO-IN-2]
remaining activity at 1.25 µM ([1]; Well no.=8123, low concentration screen): 99.9%
remaining activity at 3.75 µM ([2]; Well no.=8123, high concentration screen): 94.6%

NCCNc1nonc1C(=Nc1ccc(F)c(Br)c1)NO [IDO-IN-3]
remaining activity at 1.25 µM ([1]; Well no.=8693, low concentration screen): 107%
remaining activity at 3.75 µM ([2]; Well no.=8693, high concentration screen): 101%

Cc1ccc(NC(=O)Nc2cc([C@H]3C[C@H]3C(=O)O)ccc2N(CC(C)C)CC(C)C)cc1 [IDO-IN-4]
remaining activity at 1.25 µM ([1]; Well no.=8647, low concentration screen): 104%
remaining activity at 3.75 µM ([2]; Well no.=8647, high concentration screen): 106%

CSCCNc1nonc1-c1noc(=O)n1-c1ccc(F)c(Br)c1 [IDO-IN-12]
remaining activity at 1.25 µM ([1]; Well no.=8177, low concentration screen): 105%
remaining activity at 3.75 µM ([2]; Well no.=8177, high concentration screen): 99.7%

NCCCCCNCC12CC3CC(CC(C3)C1)C2 [IEM 1754 dihydrobroMide]
remaining activity at 1.25 µM ([1]; Well no.=5175, low concentration screen): 97.7%
remaining activity at 3.75 µM ([2]; Well no.=5175, high concentration screen): 99.2%

C[N+](C)(C)CCCCCNCC12CC3CC(CC(C3)C1)C2 [IEM-1460]
remaining activity at 1.25 µM ([1]; Well no.=524, low concentration screen): 105%
remaining activity at 3.75 µM ([2]; Well no.=524, high concentration screen): 105%

O=C(c1ccc(Nc2nccc(-c3cc4ccccc4s3)n2)cc1)N1CCC(N2CCCC2)CC1 [IKK 16 - N-(4-Pyrrolidin-1-yl-piperidin-1-yl)-[4-(4-benzo[b]thiophen-2-yl-pyrimidin-2-ylamino)phenyl]carboxamide hydrochloride]
remaining activity at 1.25 µM ([1]; Well no.=2542, low concentration screen): 100%
remaining activity at 3.75 µM ([2]; Well no.=2542, high concentration screen): 103%

O=C(Nc1cc(Cl)cc2c1[nH]c1cnccc12)c1cccnc1 [IKK Inhibitor X]
remaining activity at 1.25 µM ([1]; Well no.=2445, low concentration screen): 97.8%
remaining activity at 3.75 µM ([2]; Well no.=2445, high concentration screen): 101%

N#Cc1c(C2CCNCC2)cc(-c2c(O)cccc2OCC2CC2)nc1N [IKK-2 Inhibitor VIII]
remaining activity at 1.25 µM ([1]; Well no.=2441, low concentration screen): 104%
remaining activity at 3.75 µM ([2]; Well no.=2441, high concentration screen): 108%

NC(=O)Nc1sc(-c2ccccc2)cc1C(N)=O [IKK-2 Inhibitor VI]
remaining activity at 1.25 µM ([1]; Well no.=2437, low concentration screen): 107%
remaining activity at 3.75 µM ([2]; Well no.=2437, high concentration screen): 106%

O=C(Nc1cc(C(F)(F)F)cc(C(F)(F)F)c1)c1cc(Cl)ccc1O [IKK-2 Inhibitor V]
remaining activity at 1.25 µM ([1]; Well no.=2435, low concentration screen): 99.8%
remaining activity at 3.75 µM ([2]; Well no.=2435, high concentration screen): 102%

NC(=O)Nc1cc(-c2ccccc2)sc1C(N)=O [IKK-2 Inhibitor XI]
remaining activity at 1.25 µM ([1]; Well no.=2838, low concentration screen): 99.2%
remaining activity at 3.75 µM ([2]; Well no.=2838, high concentration screen): 103%

Cc1[nH]c2ccccc2c1C1=C(NCCc2ccc(F)cc2)C(=O)N(C)C1=O [IM-12]
remaining activity at 1.25 µM ([1]; Well no.=5776, low concentration screen): 99.9%
remaining activity at 3.75 µM ([2]; Well no.=5776, high concentration screen): 100%

O=C(Nc1cc(C(F)(F)F)cc(C(F)(F)F)c1)c1cc(Cl)ccc1O [IMD 0354 - N-[3,5-Bis(trifluoromethyl)phenyl]-5-chloro-2-hydroxybenzamide]
remaining activity at 1.25 µM ([1]; Well no.=2586, low concentration screen): 86.3%
remaining activity at 3.75 µM ([2]; Well no.=2586, high concentration screen): 82.3%

Fc1ccc(CN(C2=NCCN2)c2c(Cl)cccc2Cl)cc1 [IMID-4F hydrochloride]
remaining activity at 1.25 µM ([1]; Well no.=718, low concentration screen): 96.3%
remaining activity at 3.75 µM ([2]; Well no.=718, high concentration screen): 96.8%

COc1ccc(/C=C2\COc3ccc(C)cc3C2=O)cc1O [IMS2186]
remaining activity at 1.25 µM ([1]; Well no.=5394, low concentration screen): 97.1%
remaining activity at 3.75 µM ([2]; Well no.=5394, high concentration screen): 97.5%

CCO[C@H]1CN([C@H]2CC[C@@](O)(c3ccc4c(c3)OCO4)CC2)C[C@@H]1NC(=O)CNC(=O)c1cccc(C(F)(F)F)c1 [INCB3344]
remaining activity at 1.25 µM ([1]; Well no.=8605, low concentration screen): 108%
remaining activity at 3.75 µM ([2]; Well no.=8605, high concentration screen): 102%

CNC(=O)c1ccc(-c2cnc3ncc(Cc4ccc5ncccc5c4)n3n2)cc1F [INCB28060]
remaining activity at 1.25 µM ([1]; Well no.=5119, low concentration screen): 102%
remaining activity at 3.75 µM ([2]; Well no.=5119, high concentration screen): 103%

COc1ccc([C@]2(O)CC[C@@H](N3CC[C@@H](NC(=O)CNC(=O)c4cccc(C(F)(F)F)c4)C3)CC2)cn1 [INCB 3284]
remaining activity at 1.25 µM ([1]; Well no.=8271, low concentration screen): 102%
remaining activity at 3.75 µM ([2]; Well no.=8271, high concentration screen): 99.4%

CC(C)n1nc(-c2ccc3oc(N)nc3c2)c2c(N)ncnc21 [INK 128 (MLN0128)]
remaining activity at 1.25 µM ([1]; Well no.=5133, low concentration screen): 98.6%
remaining activity at 3.75 µM ([2]; Well no.=5133, high concentration screen): 104%

O=C(O)c1ccc(O)c2ncccc12 [IOX1]
remaining activity at 1.25 µM ([1]; Well no.=5529, low concentration screen): 102%
remaining activity at 3.75 µM ([2]; Well no.=5529, high concentration screen): 104%

O=C(O)CNC(=O)c1c(O)c2ccccc2n(Cc2ccccc2)c1=O [IOX2]
remaining activity at 1.25 µM ([1]; Well no.=5227, low concentration screen): 101%
remaining activity at 3.75 µM ([2]; Well no.=5227, high concentration screen): 95.1%

O=[N+]([O-])c1ccc(CNc2nc(NCc3cccc(C(F)(F)F)c3)nc3nc[nH]c23)cc1 [IP3K Inhibitor]
remaining activity at 1.25 µM ([1]; Well no.=2477, low concentration screen): 103%
remaining activity at 3.75 µM ([2]; Well no.=2477, high concentration screen): 105%

C[C@H](Nc1ncnc2nc[nH]c12)c1cc2cccc(Cl)c2c(=O)n1-c1ccccc1 [IPI-145 (INK1197)]
remaining activity at 1.25 µM ([1]; Well no.=5170, low concentration screen): 102%
remaining activity at 3.75 µM ([2]; Well no.=5170, high concentration screen): 99.5%

CC1(C)CN2C(CSC(=NC3CCCCC3)NC3CCCCC3)=CSC2=N1 [IT1t (dihydrochloride)]
remaining activity at 1.25 µM ([1]; Well no.=6942, low concentration screen): 94.3%
remaining activity at 1.25 µM ([1]; Well no.=8463, low concentration screen): 107%
remaining activity at 3.75 µM ([2]; Well no.=6942, high concentration screen): 93.3%
remaining activity at 3.75 µM ([2]; Well no.=8463, high concentration screen): 106%

CCN(CC)Cc1ccc2cc(COC(=O)Nc3ccc(C(=O)NO)cc3)ccc2c1 [ITF2357 (Givinostat)]
remaining activity at 1.25 µM ([1]; Well no.=5110, low concentration screen): 102%
remaining activity at 3.75 µM ([2]; Well no.=5110, high concentration screen): 106%

CCCCCN(C)CCC(O)(P(=O)(O)O)P(=O)(O)O [Ibandronate sodium salt]
remaining activity at 1.25 µM ([1]; Well no.=6031, low concentration screen): 96.1%
remaining activity at 3.75 µM ([2]; Well no.=6031, high concentration screen): 91.1%

CCCCCN(C)CCC(O)(P(=O)(O)O)P(=O)(O)O [Ibandronate sodium]
remaining activity at 1.25 µM ([1]; Well no.=5363, low concentration screen): 90.7%
remaining activity at 3.75 µM ([2]; Well no.=5363, high concentration screen): 89.7%

CCCCCN(C)CCC(O)(P(=O)(O)O)P(=O)(O)O [Ibandronate]
remaining activity at 1.25 µM ([1]; Well no.=1933, low concentration screen): 107%
remaining activity at 3.75 µM ([2]; Well no.=1933, high concentration screen): 102%

C[S+]([O-])CCCN=C=S (stereo not shown) [Iberin]
remaining activity at 1.25 µM [1]: 95.3%
remaining activity at 3.75 µM [2]: 90.7%

CC(C)C(=O)c1c(C(C)C)nn2ccccc12 [Ibudilast]
remaining activity at 1.25 µM ([1]; Well no.=572, low concentration screen): 98.8%
remaining activity at 1.25 µM ([1]; Well no.=1581, low concentration screen): 89.2%
remaining activity at 3.75 µM ([2]; Well no.=572, high concentration screen): 96.9%
remaining activity at 3.75 µM ([2]; Well no.=1581, high concentration screen): 90%

CC(C)Cc1ccc(CC(=O)O)cc1 [Ibufenac]
remaining activity at 1.25 µM ([1]; Well no.=5479, low concentration screen): 105%
remaining activity at 3.75 µM ([2]; Well no.=5479, high concentration screen): 109%

CC(C)Cc1ccc(C(C)C(=O)O)cc1 (stereo not shown) [Ibuprofen]
remaining activity at 1.25 µM ([1]; Well no.=1901, low concentration screen): 95.1%
remaining activity at 3.75 µM ([2]; Well no.=1901, high concentration screen): 97%

CC(C)Cc1ccc(C(C)C(=O)NO)cc1 (stereo not shown) [Ibuproxam]
remaining activity at 1.25 µM ([1]; Well no.=4091, low concentration screen): 95%
remaining activity at 3.75 µM ([2]; Well no.=4091, high concentration screen): 94.9%

CC(C)(N)C(=O)N[C@H](COCc1ccccc1)C(=O)N1CCC2(CC1)CN(S(C)(=O)=O)c1ccccc12 [Ibutamoren (Mesylate)]
remaining activity at 1.25 µM ([1]; Well no.=6186, low concentration screen): 98.5%
remaining activity at 3.75 µM ([2]; Well no.=6186, high concentration screen): 94.2%
